Entries after “also recorded” stand apart in the source; their conditions may differ.
Assays:
[1] = tested on: guinea pig ileal longitudinal muscle (GPI); experiment: Agonism on electrically stimulated guinea pig ileal longitudinal muscle (GPI); type: cell-based
Procedure: (§1) Ilea from guinea pigs were taken approximately 10 cm from the ileocaecal junction, and a strip of longitudinal muscle with the myenteric plexus attached was prepared by method of Rang et al., Brit. J. Phamacol., 22, 356 (1964), the disclosure of which is incorporated by reference herein. A 1 cm portion of this strip was then mounted between two platinum electrodes placed in a 10 ml organ bath and connected to an isometric transducer; contractions were recorded on a polygraph. Contractions of the ileal strip were initiated by supramaximal rectangular pulses in all preparations (80 V of 0.5 ms duration at a frequency of 0.1 Hz). Krebs bicarbonate solution containing 1.25 uM chlorpheniramine maleate was the bathing solution and was continuously bubbled with 95% O2 and 5% CO2. The organ bath was maintained at 36°-37° C. The longitudinal muscle strip was allowed to equilibrate with continuous stimulation for a minimun of 90 min. Cumulative concentration-response curves were determined after drugs were added to the bath in 10- to 50-uL amounts and washed out with two 10 ml portions of buffer after noting their maximum effects.
(§2) Compounds IIIa-IIIh and TENA were tested on the electrically-stimulated guniea pig ileal longitudinal muscle (GPI) and, where appropriate, the mouse vas deferens preparation (MVD).
(§3) ^a For ligands that are partial or pure antagonists, the highest
(§4) concentration and maximal response is given. Potencies of pure agonists
(IIIeh) are relative to morphine = 1.

[2] = target: T1, mu receptor (Cavia porcellus, UniProt A0ACM8Q262); experiment: Antagonism of morphine sulfate (mu agonist) on the GPI, IC50 ratio; type: cell-based, guinea pig
T1 construct: antagonism of morphine
Procedure: as §1

[3] = target: T2, kappa opioid receptor (Cavia porcellus, UniProt P41144); experiment: Antagonism of ethylketazocine (EK, kappa agonist) on the GPI, IC50 ratio; type: cell-based, guinea pig
T2 construct: a strip of longitudinal muscle with the myenteric plexus attached was prepared; from tissue; host or cells: guinea pig ileal longitudinal muscle strip with myenteric plexus
Procedure: as §1

[4] = target: T3, delta opioid receptor (Mus musculus, UniProt P32300); experiment: Antagonism of DADLE (selective delta agonist) on the MVD, IC50 ratio; type: cell-based; conditions: IC50 of agonist in presence of antagonist / control IC50
T3 construct: Both vasa deferentia were dissected out of mice; from tissue; host or cells: mouse vas deferens
Procedure: (§5) This assay was performed according to the description by Henderson et al., Brit. J. Pharmacol., 46, 764 (1972), the disclosure of which is incorporated by reference herein. Both vasa deferentia were dissected out of mice and mounted singly through two platinum ring electrodes in a 10 ml organ bath. The bath contained Krebs bicarbonate solution that was continuously bubbled with 95% O2 and 5% CO2. The organ bath was maintained at 37° C. The tissue was attached to an isometric transducer and stimulated transmurally with rectangular pulses ([…], 1 ms duration, supramaximal voltage). Drugs were added cumulatively to the bath in 10 to 50 ul amounts and washed out after noting their maximum effect.

[5] = target: T2, kappa opioid receptor; experiment: Antagonism of U50488H (selective kappa agonist) on the GPI, IC50 ratio; type: cell-based, guinea pig; conditions: for GPI IC50 Ratio, U50488H: IC50 of agonist in presence of antagonist / control IC50
Procedure: as §1

[6] = tested on: mouse vas deferens (MVD); experiment: Agonism on the mouse vas deferens preparation (MVD); type: cell-based; conditions: for Emax at 1 µM: Mus musculus, read-out: MVD Agonism (maximal response at highest concentration)
Procedure: as §5, §2, §3, §4

[7] = tested on: kappa-opioid receptors; experiment: Kappa-opioid antagonist selectivity (comparison of IC50 ratios, GPI and MVD); type: cell-based, guinea pig
Procedure: as §1
This assay was performed according to the description by Henderson et al., Brit. J. Pharmacol., 46, 764 (1972), the disclosure of which is incorporated by reference herein. […]

[8] = Mouse writhing procedure, antagonism of agonist; type: in vivo; conditions: morphine 50 nmol s.c.; antagonist ICV
Procedure: (§6) Mice were treated with 50 nmol of the agonist (morphine, EK, or U50488H) subcutaneously and the antagonist was administered intracerebroventricularly (ICV).

[9] = target: T4, kappa receptors (Mus musculus, UniProt P33534); experiment: Mouse writhing procedure, antagonism of agonist; type: in vivo; conditions: antagonist ICV
T4 construct: tested in vivo using the mouse writhing procedure; from tissue
Procedure: as §6

[10] = tested on: mu receptors; conditions: cited from earlier work
[11] = tested on: kappa receptor; conditions: cited from earlier work
[12] = antagonist 2 nM, IC50 of agonist in presence of antagonist / control IC50
[13] = antagonist 20 nM, IC50 of agonist in presence of antagonist / control IC50
[14] = Cavia porcellus, read-out: GPI Agonism (maximal response at highest concentration)

T3 sequence (P32300 whole entry): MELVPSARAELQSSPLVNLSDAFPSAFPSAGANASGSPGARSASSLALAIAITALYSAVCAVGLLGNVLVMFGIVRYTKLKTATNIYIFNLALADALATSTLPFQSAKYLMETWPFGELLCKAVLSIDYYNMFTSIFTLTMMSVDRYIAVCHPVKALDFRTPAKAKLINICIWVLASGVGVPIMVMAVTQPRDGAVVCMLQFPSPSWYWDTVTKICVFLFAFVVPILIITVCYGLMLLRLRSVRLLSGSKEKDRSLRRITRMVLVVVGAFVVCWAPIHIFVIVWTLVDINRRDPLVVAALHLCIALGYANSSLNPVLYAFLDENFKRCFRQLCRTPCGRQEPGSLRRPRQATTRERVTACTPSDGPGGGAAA
T2 sequence (P41144 whole entry): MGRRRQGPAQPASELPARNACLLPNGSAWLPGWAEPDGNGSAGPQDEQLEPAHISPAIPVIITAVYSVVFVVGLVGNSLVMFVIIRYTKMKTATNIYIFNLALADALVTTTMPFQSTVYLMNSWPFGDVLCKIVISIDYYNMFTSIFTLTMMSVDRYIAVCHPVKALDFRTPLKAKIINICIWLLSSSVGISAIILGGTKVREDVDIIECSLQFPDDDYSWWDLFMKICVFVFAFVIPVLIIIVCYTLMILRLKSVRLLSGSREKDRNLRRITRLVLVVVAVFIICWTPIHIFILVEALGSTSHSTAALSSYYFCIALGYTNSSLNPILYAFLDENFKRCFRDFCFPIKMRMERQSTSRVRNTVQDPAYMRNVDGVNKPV
T1 sequence (A0ACM8Q262 1-400): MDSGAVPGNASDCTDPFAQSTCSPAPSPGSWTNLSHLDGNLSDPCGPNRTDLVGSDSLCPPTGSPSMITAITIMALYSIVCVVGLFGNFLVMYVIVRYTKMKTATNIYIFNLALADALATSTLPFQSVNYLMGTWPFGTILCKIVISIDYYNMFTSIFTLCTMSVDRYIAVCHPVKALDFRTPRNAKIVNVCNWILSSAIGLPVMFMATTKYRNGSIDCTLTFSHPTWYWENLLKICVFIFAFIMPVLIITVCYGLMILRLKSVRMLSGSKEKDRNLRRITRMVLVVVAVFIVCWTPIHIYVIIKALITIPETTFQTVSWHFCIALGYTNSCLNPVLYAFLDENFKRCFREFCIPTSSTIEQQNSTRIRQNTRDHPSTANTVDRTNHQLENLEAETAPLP
T4 sequence (P33534 whole entry): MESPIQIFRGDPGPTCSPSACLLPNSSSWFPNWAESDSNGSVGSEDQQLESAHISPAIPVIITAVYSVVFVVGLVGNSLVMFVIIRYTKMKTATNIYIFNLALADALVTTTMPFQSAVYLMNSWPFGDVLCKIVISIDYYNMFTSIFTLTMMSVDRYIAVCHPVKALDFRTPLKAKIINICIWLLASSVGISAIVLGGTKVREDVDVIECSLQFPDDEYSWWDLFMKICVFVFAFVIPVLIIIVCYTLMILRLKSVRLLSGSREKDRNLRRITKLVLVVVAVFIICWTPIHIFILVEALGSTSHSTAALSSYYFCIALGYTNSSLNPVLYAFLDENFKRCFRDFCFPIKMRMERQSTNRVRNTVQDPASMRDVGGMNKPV

Row | SMILES | GPI IC50 Ratio, Morphine Sulfate [2, 13] | GPI IC50 Ratio, Ethylketazocine [3, 13] | MVD IC50 Ratio, DADLE ([4]; antagonist 20 nM) | Emax at 1 µM [6] [%] | Emax at 1 µM [1, 14] [%] | GPI Agonism, potency of pure agonists relative to morphine = 1 [1] | other results
1 | Oc1ccc2c3c1O[C@H]1c4[nH]c5c(c4C[C@@]4(O)[C@@H](C2)N(CC2CC2)CC[C@]314)C[C@@]1(O)[C@H]2Cc3ccc(O)c4c3[C@@]1(CCN2CC1CC1)[C@H]5O4 [IIIa] | 4.7 ± 0.8 | 49.7 ± 15.6 | 2.0 ± 0.1 | 16 | – | – | Emax at 0.2 µM ([1]; Cavia porcellus, @ 200 nM, read-out: GPI Agonism (maximal response at highest concentration)): 14%; GPI IC50 Ratio, Morphine Sulfate [2, 12]: 0.92 ± 0.16; GPI IC50 Ratio, Ethylketazocine [3, 12]: 8.8 ± 0.13; antagonism of U50488H in GPI, IC50 ratio values compared with EK [5]: higher IC50 ratio values were observed; GPI IC50 Ratio, U50488H ([5]; antagonist 2 nM): 11.0 ± 1.1; GPI IC50 Ratio, U50488H ([5]; antagonist 20 nM): 178 ± 18
2 | COc1ccc2c3c1O[C@H]1c4[nH]c5c(c4C[C@@]4(O)[C@@H](C2)N(CC2CC2)CC[C@]314)C[C@@]1(O)[C@H]2Cc3ccc(OC)c4c3[C@@]1(CCN2CC1CC1)[C@H]5O4 [IIIe] | 0.8 (2) | 4 (2) | 0.6 ± 0.1 | 39 | 0 | – | –
3 | Cn1c2c(c3c1[C@@H]1Oc4c(O)ccc5c4[C@@]14CCN(CC1CC1)[C@H](C5)[C@]4(O)C3)C[C@@]1(O)[C@H]3Cc4ccc(O)c5c4[C@@]1(CCN3CC1CC1)[C@H]2O5 [IIIb] | 1.2 ± 0.3 | 165 ± 30 | 4.5 ± 0.7 | 42 | 0 | – | agonist activity in GPI [1]: no agonist effect; kappa-opioid antagonist selectivity [7]: possesses the greatest kappa selectivity; also recorded: "pure" kappa-opioid receptor antagonist; antagonism of morphine in GPI ([2]; 20 nM): no significant antagonism of morphine was observed at 20 nM; ED50 ratio [(agonist+IIIb)/agonist control], morphine [8]: 0.85; ED50 ratio [(agonist+IIIb)/agonist control], EK ([9]; EK 50 nmol s.c.): 3.85; ED50 ratio [(agonist+IIIb)/agonist control], U50488H ([9]; U50488H 50 nmol s.c.): 15.71; agonist activity in MVD [6]: no agonist effect
4 | CN1CC[C@]23c4c5ccc(O)c4O[C@H]2c2[nH]c4c(c2C[C@H]3[C@H]1C5)C[C@H]1[C@H]2Cc3ccc(O)c5c3[C@@]1(CCN2C)[C@H]4O5 [IIIf] | – | – | – | – | – | 3.1 ± 0.4 | GPI IC50 Ratio, Morphine Sulfate ([2]; compound 10 nM): 0.3 ± 0.1; GPI IC50 Ratio, Ethylketazocine ([3]; compound 10 nM): 0.5 ± 0.04
5 | O=C1CC[C@@]2(O)[C@H]3Cc4ccc(O)c5c4[C@@]2(CCN3CC2CC2)[C@H]1O5 [naltrexone] | – | – | – | – | – | – | potency at mu receptors compared with kappa [10]: much greater potency at mu receptors
6 | Oc1ccc2c3c1O[C@H]1[C@H](NCCOCCOCCN[C@@H]4CC[C@@]5(O)[C@H]6Cc7ccc(O)c8c7[C@@]5(CCN6CC5CC5)[C@H]4O8)CC[C@@]4(O)[C@@H](C2)N(CC2CC2)CC[C@]314 [TENA, reference compound] | 4.20 ± 1.20 | 19.6 ± 2.40 | 1.2 | – | – | – | Emax at 0.01 µM ([1]; Cavia porcellus, @ 10 nM, read-out: GPI Agonism (maximal response at highest concentration)): 10%; times more effective in antagonizing U50488H relative to morphine ([11]; U50488H vs morphine): about 27 times; times more effective against ethylketazocine relative to morphine ([11]; ethylketazocine vs morphine): about five
7 | CN1CC[C@]23c4c5ccc(O)c4O[C@H]2c2[nH]c4c(c2C[C@@]3(O)[C@H]1C5)C[C@@]1(O)[C@H]2Cc3ccc(O)c5c3[C@@]1(CCN2C)[C@H]4O5 [IIIh] | – | – | – | – | – | 0.23 ± 0.05 | GPI IC50 Ratio, Morphine Sulfate ([2]; compound 50 nM): 0.9 ± 0.2; GPI IC50 Ratio, Ethylketazocine ([3]; compound 50 nM): 0.4 ± 0.05
8 | CCn1c2c(c3c1[C@@H]1Oc4c(O)ccc5c4[C@@]14CCN(CC1CC1)[C@H](C5)[C@]4(O)C3)C[C@@]1(O)[C@H]3Cc4ccc(O)c5c4[C@@]1(CCN3CC1CC1)[C@H]2O5 [IIIc] | 2.2 ± 0.7 | 147 ± 20 | 4.2 ± 1.1 | 41 | 0 | – | MVD IC50 Ratio, DADLE ([4]; antagonist 2 nM): 1.8 ± 0.3
9 | COc1ccc2c3c1O[C@H]1c4[nH]c5c(c4C[C@H]4[C@@H](C2)N(C)CC[C@]314)C[C@H]1[C@H]2Cc3ccc(OC)c4c3[C@@]1(CCN2C)[C@H]5O4 [IIIg] | – | – | – | – | – | 0.2 ± 0.04 | GPI IC50 Ratio, Morphine Sulfate ([2]; compound 100 nM): 0.5 ± 0.07; GPI IC50 Ratio, Ethylketazocine ([3]; compound 100 nM): 0.4 ± 0.07
10 | CC(=O)Oc1ccc2c3c1O[C@H]1c4[nH]c5c(c4C[C@@]4(O)[C@@H](C2)N(CC2CC2)CC[C@]314)C[C@@]1(O)[C@H]2Cc3ccc(OC(C)=O)c4c3[C@@]1(CCN2CC1CC1)[C@H]5O4 [IIId] | 8.0 (2) | 697 (2) | 3.5 ± 1.3 | 32 | 32 | – | –
